Measured values from patent US20160279187A1, “CALPAIN INHIBITORS FOR IBD AND COLORECTAL CANCER TREATMENT” (UNIVERSITY OF HAWAII, priority 2013, published 2016).
Where a SMILES comes first, the peptide text is derived from it. The star is where a group is joined. Cbz = O=C(OCc1ccccc1)*; CH2F = FC*

Columns and labels:
[1] = test system: calpain activity in the colon tissue; assay: DSS dose-response, calpain activity in colon tissue; assay type: in vivo, mice; conditions: 2% DSS 4 days
Protocol: Bone marrow derived macrophages (BMDM) were prepared as previously described by methods known to those skilled in the art. On day 5 of culture, 2×10^6 BMDM were seeded in 6-well plates and the following day were primed for 18 h with TNFα (20 ng/mL), followed by 1 h stimulation with E. faecalis (1 μg/mL; ATCC). Stimulation with E. faecalis was conducted in the presence of the zLLY-CH2F calpain-2 inhibitor (20 μg/mL) or DMSO as a control. Media was removed from treated BMDM, centrifuged at 300×g for 5 min and supernatent analyzed using the Cytometric Bead Array Mouse Inflammation Kit (BD Biosciences, San Jose, Calif.). Cytokine data were analyzed using Flowjo software (Ashland, Oreg.) and GraphPad Prism version 4.0 (GraphPad, La Jolla, Calif.). Cell pellets were lysed and analyzed for IκB and NFκB by Western blot as previously described (Miyazaki, T. et al. Journal of Atherosclerosis and Thrombosis 20, 228-237, 2013). […] Each day 4 wells were quantified using Celltiter MTS reagent (Promega) and the resulting signal was used to generate a proliferation curve. Calpain activity was measured using a Calpain activity assay kit (BioVision, Inc., Milpitas, Calif.) as previously described. Colons were harvested on day 4 and calpain activity measured. […]

m-calpain = biological target: T1, m-calpain (Homo sapiens, UniProt P17655); conditions: on-target; cited from earlier work
T1 sequence (P17655 1-700): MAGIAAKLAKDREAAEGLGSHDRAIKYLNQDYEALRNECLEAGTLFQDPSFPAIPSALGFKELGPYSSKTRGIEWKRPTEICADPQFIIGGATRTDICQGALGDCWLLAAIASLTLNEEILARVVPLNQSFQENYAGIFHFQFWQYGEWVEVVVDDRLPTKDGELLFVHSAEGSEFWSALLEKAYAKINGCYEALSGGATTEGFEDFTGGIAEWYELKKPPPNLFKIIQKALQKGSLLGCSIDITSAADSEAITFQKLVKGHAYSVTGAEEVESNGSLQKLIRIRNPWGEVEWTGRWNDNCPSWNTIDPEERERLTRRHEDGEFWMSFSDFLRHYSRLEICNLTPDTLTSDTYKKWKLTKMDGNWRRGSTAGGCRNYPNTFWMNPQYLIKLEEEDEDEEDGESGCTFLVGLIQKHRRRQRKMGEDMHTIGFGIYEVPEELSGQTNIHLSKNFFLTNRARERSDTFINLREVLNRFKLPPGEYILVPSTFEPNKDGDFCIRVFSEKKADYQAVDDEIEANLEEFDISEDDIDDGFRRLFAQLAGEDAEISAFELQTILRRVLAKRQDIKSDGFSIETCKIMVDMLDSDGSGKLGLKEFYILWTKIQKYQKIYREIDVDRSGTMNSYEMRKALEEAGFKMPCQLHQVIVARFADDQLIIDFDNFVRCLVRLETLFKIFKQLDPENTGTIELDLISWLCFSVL
T1 sequence (P04632 1-268 partner): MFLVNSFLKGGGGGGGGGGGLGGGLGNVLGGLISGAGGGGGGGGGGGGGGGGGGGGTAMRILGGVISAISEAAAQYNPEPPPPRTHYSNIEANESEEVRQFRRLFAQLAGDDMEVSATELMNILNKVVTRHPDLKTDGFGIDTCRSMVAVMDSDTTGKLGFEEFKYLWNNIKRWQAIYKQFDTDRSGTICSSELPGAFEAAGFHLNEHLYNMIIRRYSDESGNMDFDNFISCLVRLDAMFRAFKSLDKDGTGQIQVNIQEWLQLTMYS

For `CC(C)C[C@H](NC(=O)OCc1ccccc1)C(=O)N[C@@H](CC(C)C)C(=O)N[C@@H](Cc1ccc(O)cc1)C(=O)CF` [zLLY-CH2F, Z-LLY-CH2F] (Cbz-Leu-Leu-Tyr-CH2F), the “total calpain activity reduced by” value ([1]; daily i.p. injection, 0.75 mg/kg) is listed as 50%, the “dose at which the maximum amount of calpain activity inhibition was achieved” value ([1]; i.p., 0-1.25 mg/kg tested) is listed as 0.75 mg/kg and the “k2 rate constant, irreversible inhibition of m-calpain” value (m-calpain) is listed as “about 28,900 M-1 s-1”.
